# According to paper PMC6284057, “Combined Antibacterial Effects of Goat Cathelicidins With Different Mechanisms of Action” (Frontiers in Microbiology, 2018):
# Read-outs that look alike come from different tables or passages of the source. No end group written: not given here.
# Columns and labels:
# [1] = tested on: A. baumannii (XDR CI 2675); experiment: microbe, parasite or virus in culture; format: cell-based, Acinetobacter baumannii; conditions: Mueller-Hinton broth, 10^6 CFU/ml, 0.1% BSA, 37°C, 24 h, median of at least 3 experiments, read-out: Minimum inhibitory concentration
# Description: (§1) Antimicrobial assay was performed as described previously ([Panteleev et al., 2017b]). Briefly, mid-log phase bacterial test cultures were diluted with the 2× Mueller-Hinton broth (MH, Sigma) supplemented with 1.8% NaCl or without it so that to reach a final cell concentration of 10^6 CFU/ml. 50 μl aliquots of the obtained bacterial suspension were added to 50 μl of the peptide solutions serially diluted with 0.1% water solution of bovine serum albumin (BSA) in 96-well flat-bottom polystyrene microplates (Eppendorf #0030730011). After incubation at 37°C and 900 rpm for 24 h the minimum inhibitory concentrations (MIC) were determined as the lowest peptide concentrations that prevented growth of a test microorganism observed as visible turbidity. The results were expressed as the median values determined on the basis of at least three independent experiments performed in triplicate.
# M. luteus B-1314 = format: cell-based, Micrococcus luteus; conditions: Mueller-Hinton broth, 10^6 CFU/ml, peptide diluted in 0.1% BSA, 37°C, 24 h, median of at least 3 experiments in triplicate
# Description: as §1
# [2] = tested on: mammalian cell lines (HEK293T, HEF); experiment: Cytotoxicity (MTT assay); format: cell-based, human; conditions: HEK293T and HEF, 24 h incubation
# Description: Hemolytic activity of the peptides was tested against the fresh suspension of human red blood cells (hRBC) using the hemoglobin release assay as described previously ([Panteleev et al., 2016]). Three experiments were performed with the hRBC from blood samples obtained from independent donors. The obtained data were represented as average means with standard deviations. The cytotoxicity of the peptides against HEK293T (transformed human embryonic kidney cells) and HEF (human embryonic fibroblasts) cell lines was studied using the colorimetric 3-(4,5-dimethylthiazol-2-yl)-2,5-diphenyltetrazolium bromide (MTT) dye reduction assay according to ([Panteleev and Ovchinnikova, 2017]). Three independent experiments were performed for each peptide. Half maximal inhibitory concentration (IC50) values were estimated as described previously ([Kuzmin et al., 2018]).
# [3] = tested on: mini-ChBac7.5Nα-resistant E. coli strain; conditions: peptide alone, before addition of ChMAP-28
# Description: as §1, with “After incubation at 37°C and 900 rpm for 24 h the minimum inhibitory concentrations (MIC) were determined as the lowest peptide concentrations that prevented growth of a test microorganism observed as visible turbidity.” left out
# (§2) Resistance induction experiments were performed using the previously described method ([Chernysh et al., 2015]) with some modifications. Briefly, on day 1, the overnight culture of wild-type bacteria was diluted with the 2× MH broth containing 1.8% NaCl so that to reach a final cell concentration of 10^6 CFU/ml. 50 μl aliquots of the obtained bacterial suspension were added to 50 μl of the peptide solutions serially diluted with 0.1% water solution of BSA in 96-well microplates (Eppendorf #0030730011). After incubation at 37°C and 900 rpm for 22 ± 2 h, MICs were determined as described above. For each subsequent daily transfer, 5 μl of the inoculum taken from the first well with a sub-inhibitory drug concentration were diluted with 1 ml of the fresh 2× MH broth supplemented with 1.8% NaCl. […] 26 repeated passages in the presence of antimicrobial agents were made for each bacterial strain during the experiment. […] Control serial passages in the absence of the agent were also performed.
# [4] = tested on: E. coli XDR CI 1057 (26 days without antimicrobial agent); conditions: control strain, 26 days without antimicrobial agent
# Description: as §1, with “After incubation at 37°C and 900 rpm for 24 h the minimum inhibitory concentrations (MIC) were determined as the lowest peptide concentrations that prevented growth of a test microorganism observed as visible turbidity.” left out
# as §2
# [5] = tested on: E. coli XDR CI 1057 (26 days with mini-ChBac7.5Nα); conditions: resistant strain, 26 days with mini-ChBac7.5Nα
# Description: as §1, with “After incubation at 37°C and 900 rpm for 24 h the minimum inhibitory concentrations (MIC) were determined as the lowest peptide concentrations that prevented growth of a test microorganism observed as visible turbidity.” left out
# as §2
# E. cloacae (XDR CI 4172) = experiment: microbe, parasite or virus in culture; format: cell-based, Enterobacter cloacae; conditions: Mueller-Hinton broth, 10^6 CFU/ml, 0.1% BSA, 37°C, 24 h, median of at least 3 experiments, read-out: Minimum inhibitory concentration
# Description: as §1
# E. coli ML-35p = format: cell-based, Escherichia coli; conditions: Mueller-Hinton broth, 10^6 CFU/ml, 0.1% BSA, 37°C, 24 h, median of at least 3 experiments
# Description: as §1
# E. coli C600 = format: cell-based, Escherichia coli; conditions: Mueller-Hinton broth, 10^6 CFU/ml, 0.1% BSA, 37°C, 24 h, median of at least 3 experiments
# Description: as §1
# B. subtilis B-886 = format: cell-based, Bacillus subtilis; conditions: Mueller-Hinton broth, 10^6 CFU/ml, 0.1% BSA, 37°C, 24 h, median of at least 3 experiments
# Description: as §1
# S. aureus ATCC 29213 = format: cell-based, Staphylococcus aureus; conditions: Mueller-Hinton broth, 10^6 CFU/ml, 0.1% BSA, 37°C, 24 h, median of at least 3 experiments
# Description: (§3) Briefly, mid-log phase bacterial test cultures were diluted with the 2× Mueller-Hinton broth (MH, Sigma) supplemented with 1.8% NaCl or without it so that to reach a final cell concentration of 10^6 CFU/ml. 50 μl aliquots of the obtained bacterial suspension were added to 50 μl of the peptide solutions serially diluted with 0.1% water solution of bovine serum albumin (BSA) in 96-well flat-bottom polystyrene microplates (Eppendorf #0030730011). […] The results were expressed as the median values determined on the basis of at least three independent experiments performed in triplicate.
# S. aureus 209P = format: cell-based, Staphylococcus aureus; conditions: Mueller-Hinton broth, 10^6 CFU/ml, 0.1% BSA, 37°C, 24 h, median of at least 3 experiments
# Description: as §1
# E. faecalis ATCC 29212 = format: cell-based, Enterococcus faecalis; conditions: Mueller-Hinton broth, 10^6 CFU/ml, 0.1% BSA, 37°C, 24 h, median of at least 3 experiments
# Description: as §3
# P. aeruginosa PAO1 = format: cell-based, Pseudomonas aeruginosa; conditions: Mueller-Hinton broth, 10^6 CFU/ml, 0.1% BSA, 37°C, 24 h, median of at least 3 experiments
# Description: as §1
# K. pneumoniae (CI 287) = format: cell-based, Klebsiella pneumoniae; conditions: Mueller-Hinton broth, 10^6 CFU/ml, 0.1% BSA, 37°C, 24 h, median of at least 3 experiments
# Description: as §1
sequence,measurement,setting,value
RRLRPRRPRLPRPRPR [mini-ChBac7.5Nα(1–16)],MIC,[1]; 0.9% NaCl,>32 µM
same,MIC,[1]; Without NaCl,4 µM
same,Minimum inhibitory concentration,M. luteus B-1314; 0.9% NaCl,8 µM
same,Minimum inhibitory concentration,M. luteus B-1314; Without NaCl,1 µM
same,concentrations at which cytotoxic activity was shown,[2],> 25 µM
same,MIC of the individual peptide,[3],> 256 µM
same,Minimum inhibitory concentration,[4]; With 0.9% NaCl,16 µM
same,Minimum inhibitory concentration,[4]; Without salt,2 µM
same,Minimum inhibitory concentration,[5]; With 0.9% NaCl,>256 µM
same,Minimum inhibitory concentration,[5]; Without salt,16 µM
same,MIC,E. cloacae (XDR CI 4172); 0.9% NaCl,>32 µM
same,MIC,E. cloacae (XDR CI 4172); Without NaCl,1 µM
same,Minimum inhibitory concentration,E. coli ML-35p; 0.9% NaCl,8 µM
same,Minimum inhibitory concentration,E. coli ML-35p; Without NaCl,0.5 µM
same,Minimum inhibitory concentration,E. coli C600; 0.9% NaCl,16 µM
same,Minimum inhibitory concentration,E. coli C600; Without NaCl,2 µM
same,Minimum inhibitory concentration,B. subtilis B-886; 0.9% NaCl,>32 µM
same,Minimum inhibitory concentration,B. subtilis B-886; Without NaCl,1 µM
same,Minimum inhibitory concentration,S. aureus ATCC 29213; 0.9% NaCl,>32 µM
same,Minimum inhibitory concentration,S. aureus ATCC 29213; Without NaCl,>32 µM
same,Minimum inhibitory concentration,S. aureus 209P; 0.9% NaCl,>32 µM
same,Minimum inhibitory concentration,S. aureus 209P; Without NaCl,8 µM
same,Minimum inhibitory concentration,E. faecalis ATCC 29212; 0.9% NaCl,>32 µM
same,Minimum inhibitory concentration,E. faecalis ATCC 29212; Without NaCl,>32 µM
same,Minimum inhibitory concentration,P. aeruginosa PAO1; 0.9% NaCl,>32 µM
same,Minimum inhibitory concentration,P. aeruginosa PAO1; Without NaCl,16 µM
same,Minimum inhibitory concentration,K. pneumoniae (CI 287); 0.9% NaCl,>32 µM
same,Minimum inhibitory concentration,K. pneumoniae (CI 287); Without NaCl,4 µM
